In paper PMC11795524, “Melanin-Binding-Based Discovery of Topically Instilled Carbonic Anhydrase Inhibitors for Targeted Delivery and Prolonged Action in the Eye” (Molecular Pharmaceutics, 2025):
Read-outs that look alike come from different tables or passages of the source.

What was measured:
[1] = In vitro melanin binding by microscale thermophoresis / initial fluorescence (Monolith NT.115 pico); conditions: Appendix table 1, Nano or Pico detector, IF or MST mode, 68% confidence; for Kd: read-out: Melanin binding affinity Kd ± confidence
Source text: Melanin binding of the CAI-II compounds was studied with a Monolith NT.115 pico (NanoTemper Technologies GmbH, Munich, Germany) device using the method of […] et al. […] Otherwise, normalized fluorescence signals and the ratio of relative fluorescence after heating (MST mode) were used. The MST software was used in expert mode to allow heating for 30 s. […] As ligand autofluorescence may interfere with the assay, their autofluorescence values were pretested with the detector used in experiment (nanoblue or pico-red). Fluorescence of the ligand should be below 20% of melanin fluorescence. Sample aggregation and adsorption to the capillaries were used also as exclusion criteria.

[2] = target: recombinant human carbonic anhydrase II; parameters: method as in earlier work; conditions: stopped flow kinetics protocol; read-out: Ki against hCA II; cited from earlier work
[3] = target: T1, human carbonic anhydrase II (Homo sapiens, UniProt P00918); test: Multiparametric surface plasmon resonance (MP-SPR) interaction kinetics with immobilized hCAII; type: binding
T1 construct: purchased Sigma
Protocol: All MP-SPR measurements were conducted at 25 °C using carboxymethyl dextran hydrogel-coated (CMD-3DM) sensors (BioNavis) and were based on the protocol described by Rogez-Florent et al.[22]
Human carbonic anhydrase isoenzyme II (Sigma) was immobilized using a standard amine coupling procedure with the Amine Coupling Kit (BioNavis) and phosphate buffered saline (PBS) (20 mM phosphate buffer, 150 mM NaCl, pH 7.4) as the background buffer. Before immobilization, the sensor surface was cleaned with 2 M sodium chloride and 10 mM sodium hydroxide for 6 min at a flow rate of 30 μL/min. Then, a constant flow rate of 10 μL/min was maintained throughout the immobilization steps. The surface was activated for 7 min with 200 mM 1-ethyl-3-(3-(dimethylamino)propyl)-carbodiimide (EDC) and 50 mM N-hydroxysuccinimide, immediately followed by a 5 min injection of 45 μg/mL hCAII solution in 10 mM acetate buffer, pH 5.5. In the reference flow channel, no enzyme was immobilized. Residual activated groups of the dextran matrix were deactivated by a 7 min injection of 1 M ethanolamine HCl, pH 8.3.
For analyzing CAIs, 1% (v/v) DMSO in PBS, pH 7.4, was used as a running buffer. All CAIs were dissolved in 100% DMSO and stored as 50 mM stock solutions. These stock solutions were further diluted with the running buffer and analyzed using a 3-fold (3–1000 nM) dilution series. […] Each analyte was injected at a flow rate of 100 μL/min, with an association time of 2 min and a dissociation time of 10 min. […] Seven concentrations were measured for each CAI per cycle, and a “wash all” step with running buffer was performed at the end of each cycle to minimize the carry over effects. Each CAI were assayed in triplicate across three independent experiments.
The acquired data were processed using MP-SPR Navi Data Viewer software (version 6.7.0.1, BioNavis) employing the weighted centroid method for determining the SPR peak angular position. Signals from the reference flow channel were subtracted from the corresponding signals of the flow channel containing immobilized hCAII. The moment of sample injection was selected as the zero-time point, where both the time and MP-SPR response were set to zero. Processed data were globally fitted to a simple 1:1 interaction model using TraceDrawer software (version 1.9.2, Ridgeview Instruments AB, Sweden) to obtain kinetic parameters.

[4] = MP-SPR, 25 °C, 1:1 model, read-out: KD

Structure (SMILES) | Kd [1] | Ki [2] | further results
COc1ccc(-c2noc(-c3ccc(S(N)(=O)=O)cc3)n2)cc1OC [A04] | 92 ± 17 µM | 0.46 ± 0.05 nM | –
CN1CCC(NS(N)(=O)=O)CC1 [C12] | 1680 ± 3480 µM | 52.1 ± 5.2 nM | –
NS(=O)(=O)c1ccc(-c2ccc(=O)[nH]n2)s1 [B04] | 393 ± 185 µM | 3.6 ± 0.4 nM | –
Cc1ccccc1-c1noc(-c2ccc(S(N)(=O)=O)cc2)n1 [A11] | 177 ± 56 µM | 0.42 ± 0.04 nM | –
NS(=O)(=O)N1CCOCC1 [C21] | – | 66.9 ± 7 nM | Melanin binding affinity Kd ± confidence [1]: Not detectable
CC(C)(C)OC(=O)N1CCN(S(N)(=O)=O)CC1 [C17] | – | 16.2 ± 1.6 nM | Melanin binding affinity Kd ± confidence [1]: Not detectable
NS(=O)(=O)c1ccc(Cl)c(-n2cccn2)c1 [A27] | – | 0.001 ± 0.001 nM | –
COc1cc(S(N)(=O)=O)ccc1-c1nc(-c2cccnc2)no1 [A09] | 152 ± 98 µM | 0.74 ± 0.08 nM | –
NS(=O)(=O)NCCc1ccc(S(=O)(=O)N2CCCC2)cc1 [C07] | 596 ± 264 µM | 43.5 ± 4.4 nM | –
NS(=O)(=O)c1ccc(-n2nc(-c3ccc(Cl)c(Cl)c3)ccc2=O)cc1 [A25] | – | 74.1 ± 7.4 nM | –
Cc1nn(-c2ccc(Cl)c(S(N)(=O)=O)c2)c(C)c1S(N)(=O)=O [B08] | – | 0.008 ± 0.001 nM | –
NS(=O)(=O)c1cnn(-c2ccc(Cl)c(S(N)(=O)=O)c2)c1 [B07] | 941 ± 1740 µM | 0.008 ± 0.001 nM | –
NS(=O)(=O)c1ccc(-n2ncc3ccccc3c2=O)cc1 [A06] | 104 ± 42 µM | 0.23 ± 0.02 nM | –
CC(C)(C)c1ccc(-c2noc(-c3ccc(S(N)(=O)=O)cc3)n2)cc1 [A26] | – | 0.95 ± 0.09 nM | –
NS(=O)(=O)Nc1cccc2ccccc12 [C08] | 1050 ± 2070 µM | 56.7 ± 5.7 nM | –
NS(=O)(=O)c1ccc2c(c1)Oc1ccccc1C(=O)N2C1CC1 [A21] | 722 ± 1030 µM | 0.82 ± 0.08 nM | –
NS(=O)(=O)c1ccc(NN=C(c2cncc(F)c2)C2CC2)cc1 [A07] | 115 ± 85 µM | – | ka ([3]; MP-SPR, 25 °C, 1:1 model): 0.24 ± 0.05 10^6 M^–1 s^–1; kd ([3]; MP-SPR, 25 °C, 1:1 model): 1.78 ± 0.40 10^–2 s^–1; Kd [3, 4]: 0.0756 ± 0.0112 µM; Kd ([3]; surface plasmon resonance, Appendix table 1, read-out: Kd against hCA II): 0.0756 ± 0.0112 µM
NS(=O)(=O)c1ccc(-c2noc(-c3ccsc3)n2)cc1 [A18] | 520 ± 79 µM | 44.3 ± 4.4 nM | –
NS(=O)(=O)NCC1CCCO1 (stereo not drawn) [C05] | 412 ± 802 µM | 63.4 ± 6.3 nM | –

Structure (SMILES) | Kd [1] | Ki [2] | further results
NS(=O)(=O)c1ccc(-n2ncccc2=O)cc1 [A20] | – | 8.2 ± 0.8 nM | –
NS(=O)(=O)Nc1ccc(C(F)(F)F)cc1 [C06] | 582 ± 465 µM | 37.8 ± 3.8 nM | –
NS(=O)(=O)NC1CCCc2ccccc21 (stereo not drawn) [C16] | 25000 µM | 42.6 ± 4.3 nM | –
CC(=NNc1ccc(S(N)(=O)=O)cc1)c1nccnc1C [A05] | 97 ± 44 µM | – | ka ([3]; MP-SPR, 25 °C, 1:1 model): 0.61 ± 0.25 10^6 M^–1 s^–1; kd ([3]; MP-SPR, 25 °C, 1:1 model): 1.70 ± 0.25 10^–2 s^–1; Kd [3, 4]: 0.0315 ± 0.00919 µM
NS(=O)(=O)N1CCC(O)CC1 [C04] | 405 ± 311 µM | 42.7 ± 4.3 nM | –
NS(=O)(=O)c1ccc(-n2cccn2)cc1 [A13] | 203 ± 367 µM | 0.072 ± 0.001 nM | –
Cc1cc(-n2cccn2)ccc1S(N)(=O)=O [A23] | 957 ± 2010 µM | 0.008 ± 0.001 nM | –
NS(=O)(=O)N1CCc2ccccc21 [C19] | – | 472 ± 47.2 nM | Melanin binding affinity Kd ± confidence [1]: Not detectable
CC1Cc2ccccc2N1S(N)(=O)=O (stereo not drawn) [C13] | 1700 µM | 316 ± 31.6 nM | –
NS(=O)(=O)c1ccc(-c2nc(-c3ccc(Oc4ccc(F)cc4)cc3)no2)cc1 [A16] | 451 ± 581 µM | 48.3 ± 4.8 nM | –
CCN(CC)CCN(C)S(N)(=O)=O [C10] | 1520 ± 4030 µM | 92.3 ± 9.2 nM | –
CC(=O)Nc1nc(-c2csc(S(N)(=O)=O)c2)no1 [B03] | 231 ± 43 µM | – | –
COc1ccc2cnn(-c3ccc(S(N)(=O)=O)cc3)c(=O)c2c1OC [A08] | 142 ± 55 µM | 3.5 ± 0.4 nM | –
Cc1nn(-c2ccc(S(N)(=O)=O)cc2)c(=O)c2ccccc12 [A14] | 205 ± 98 µM | 0.03 ± 0.01 nM | –
NS(=O)(=O)c1ccc(-n2nc(-c3ccccc3)ccc2=O)cc1 [A03] | 78 ± 39 µM | 0.26 ± 0.03 nM | –
COC(=O)C1CCCN1S(N)(=O)=O (stereo not drawn) [C18] | – | 69.8 ± 7 nM | Melanin binding affinity Kd ± confidence [1]: Not detectable
Cc1ccc(-c2noc(N)c2S(N)(=O)=O)cc1S(N)(=O)=O [B06] | 573 ± 154 µM | 6 ± 0.6 nM | –
CN(C)CCN(Cc1ccccc1)S(N)(=O)=O [C11] | 1620 ± 4530 µM | 39.8 ± 4 nM | –
NS(=O)(=O)Nc1ccc(F)cc1F [C01] | 92 ± 25 µM | 76.3 ± 7.6 nM | –

Structure (SMILES) | Kd [1] | Ki [2] | further results
NS(=O)(=O)c1cc(-c2noc(C3CC3)n2)cs1 [B05] | 448 ± 166 µM | 0.88 ± 0.08 nM | –
NC(=O)C1CCN(S(N)(=O)=O)CC1 [C22] | – | 59.4 ± 6 nM | Melanin binding affinity Kd ± confidence [1]: Not detectable
Nc1onc(-c2csc(S(N)(=O)=O)c2)c1S(N)(=O)=O [B09] | 2130 µM | 24.6 ± 2.5 nM | –
NS(=O)(=O)N1CCCc2ccccc21 [C15] | – | 89.5 ± 9 nM | –
CCn1nc(-c2cc(S(N)(=O)=O)c(C)s2)ccc1=O [B01] | 105 ± 30 µM | 4.8 ± 0.5 nM | –
NS(=O)(=O)NCc1cccc2ccccc12 [C02] | 122 ± 40 µM | 5250 ± 525 nM | –
NS(=O)(=O)c1ccc(-c2ncc(C(=O)N3CCNCC3)o2)s1 [B02] | 165 ± 19 µM | 0.069 ± 0.007 nM | –
Cc1ccc(=O)n(-c2ccc(S(N)(=O)=O)cc2)n1 [A30] | – | 0.68 ± 0.07 nM | Melanin binding affinity Kd ± confidence [1]: Not detectable
NS(=O)(=O)N1CCc2ccccc2C1 [C09] | 1120 ± 2350 µM | 32.8 ± 3.3 nM | –
Cc1ccccc1-n1nc(C)c(S(N)(=O)=O)c1C [B11] | – | 0.091 ± 0.01 nM | Melanin binding affinity Kd ± confidence [1]: Not detectable
NS(=O)(=O)NCc1ccc(F)cc1 [C03] | 361 ± 700 µM | 70.5 ± 7.1 nM | –
CCOC(=O)C1CCN(S(N)(=O)=O)CC1 [C20] | – | 42.8 ± 4.3 nM | Melanin binding affinity Kd ± confidence [1]: Not detectable
Cc1nn(-c2cc(S(N)(=O)=O)ccc2Cl)c(C)c1S(N)(=O)=O [B10] | – | 0.008 ± 0.01 nM | –
Cc1cc(C)n(-c2ccc(S(N)(=O)=O)cc2)n1 [A28] | – | 0.004 ± 0.001 nM | –
NS(=O)(=O)N1CCC(N2CCCCC2)CC1 [C14] | – | 99.3 ± 9.9 nM | –
NS(=O)(=O)c1cccc(-c2nc(-c3cccnc3)no2)c1 [A02] | 78 ± 24 µM | 0.77 ± 0.08 nM | –
COc1cc(S(N)(=O)=O)ccc1-c1nc(-c2ccc3c(c2)OC(=O)CN3C)no1 [A24] | 1550 ± 4580 µM | 48.3 ± 4.8 nM | –
NS(=O)(=O)c1ccc(-n2ncc(N3CCc4ccccc4C3)c(Cl)c2=O)cc1 [A29] | – | 60.5 ± 6 nM | –
COc1ccc(-c2ccc(=O)n(-c3ccc(S(N)(=O)=O)cc3)n2)cc1 [A10] | 156 ± 101 µM | 0.08 ± 0.001 nM | –
